Measurements taken from patent US9487489B2, “Halogen-substituted pyrazole derivatives as pest-control agents” (BAYER CROPSCIENCE AKTIENGESELLSCHAFT, priority 2013, dated 2016).

Experiments:
[1] = test system: green peach aphid (Myzus persicae); test: Myzus persicae spray test (MYZUPE); type: in vivo; details: Chinese cabbage leaf discs, after 6 days
Protocol: G. Myzus persicae-spray Test (MYZUPE)
Solvents: 78 parts by weight of acetone
• 1.5 parts by weight of dimethylformamide Emulsifier: alkylaryl polyglycol ether
To produce a suitable preparation of active compound, 1 part by weight of active compound is dissolved using the stated parts by weight of solvent and made up with water comprising an emulsifier concentration of 1000 ppm until the desired concentration is reached. To produce further test concentrations, the preparation is diluted with emulsifier-containing water.
Discs of Chinese cabbage leaves (Brassica pekinensis) infested by all stages of the green peach aphid (Myzus persicae) are sprayed with an active compound preparation of the desired concentration.
After 6 days, the efficacy in % is determined 100% here means that all of the aphids have been killed; 0% means that no aphids have been killed.

[2] = test system: larvae of the mustard beetle (Phaedon cochleariae); test: Phaedon cochleariae spray test (PHAECO); type: in vivo; details: Chinese cabbage leaf discs, after 7 days
Procedure, shortened: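 Compound dissolved in acetone/dimethylformamide with alkylaryl polyglycol ether emulsifier, made up in water containing 1000 ppm emulsifier, then diluted to test concentrations and sprayed against mustard beetle larvae. Efficacy (% larvae killed) scored after 7 days.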

[3] = logP determination by HPLC on a reversed-phase column (C18), EEC Directive 79/831 Annex V.A8; type: physicochemical; details: HPLC on reversed-phase column (C18), acetonitrile/water with formic acid, EEC Directive 79/831 Annex V.A8
Procedure, shortened: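 Retention on a C18 reversed-phase column (Zorbax Eclipse Plus, 1.8 micron) was used, eluting with acetonitrile/water, each containing formic acid. The gradient ran from 10% to 95% acetonitrile over 4.25 min, then held 1.25 min, at 55° C and 2.0 ml/min, with MS detection.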

[4] = test system: greenhouse red spider mite (Tetranychus urticae); test: Tetranychus urticae spray test, OP-resistant (TETRUR); type: in vivo; details: bean leaf discs, after 6 days
Procedure, shortened: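 Bean leaf discs carrying all stages of OP-resistant Tetranychus urticae were sprayed with compound formulated in acetone/dimethylformamide and diluted in water with 1000 ppm alkylaryl polyglycol ether emulsifier. Mortality (% efficacy, 100% = all mites killed) scored after 6 days.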

[5] = test system: caterpillars of the armyworm (Spodoptera frugiperda); test: Spodoptera frugiperda spray test (SPODFR); type: in vivo; details: maize leaf discs, after 7 days
Procedure, shortened: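 Maize leaf discs sprayed with compound in acetone/DMF with alkylaryl polyglycol ether emulsifier (1000 ppm) in water, dried, then infested with armyworm caterpillars. Mortality (%) scored after 7 days; 100% = all caterpillars killed, 0% = none killed.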

[6] = test system: adult dog ticks (Rhipicephalus sanguineus); test: Rhipicephalus sanguineus in vitro contact test with adult brown dog ticks (T2); details: after 48 h
Procedure, shortened: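 Acetone solutions coated onto test tube walls and floor, giving 5 μg/cm^2 at 900 ppm. Five to ten adult ticks held per tube in the dark at room temperature for 48 h, then heated at 45-50° C for up to 5 min; efficacy is the percentage of dead or moribund ticks unable to climb away.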

[7] = test system: adult cat fleas (Ctenocephalides felis); test: Ctenocephalides felis in vitro contact test with adult cat fleas (T1); details: after 48 h
Procedure, shortened: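 Test compound was dissolved in acetone p.a. (9 mg per 1 ml) and diluted as needed. 250 μl was spread evenly over the inner walls and floor of a 25 ml test tube by rotating on an orbital shaker for 2 h at 30 rpm. Once the solvent evaporated, 5-10 adult Ctenocephalides felis were added. Tubes were capped with a perforated plastic lid and kept horizontal at room temperature and ambient humidity.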

Row | SMILES | efficacy in % ([1]; application rate 100 g/ha) | efficacy in % ([2]; application rate 100 g/ha) | logP [3] | efficacy in % ([4]; application rate 100 g/ha) | efficacy in % ([5]; application rate 100 g/ha) | efficacy in % ([1]; application rate 500 g/ha) | efficacy (dead or moribund ticks) ([6]; application rate 1 μg/cm^2) | efficacy (dead or moribund ticks) ([6]; application rate 5 μg/cm^2) | efficacy in % ([2]; application rate 500 g/ha) | efficacy in % ([4]; application rate 500 g/ha) | efficacy (dead or moribund fleas) ([7]; application rate 1 μg/cm^2) | efficacy (dead or moribund fleas) ([7]; application rate 5 μg/cm^2) | efficacy in % ([5]; application rate 500 g/ha)
1 | Cn1nc(C(F)(F)F)c(C(F)(F)F)c1-n1cc(-c2ccc(Cl)c(C(=O)NC3CC3)c2)cn1 [Ic-126] | 100% | 100% | 3.42 | 100% | 100% |  |  |  |  |  |  |  | 
2 | Cn1nc(C(F)(F)C(F)(F)F)c(C(F)(F)F)c1-n1cc(-c2ccc(Cl)c(C(=O)NC3CC(S(C)(=O)=O)C3)c2)cn1 (stereo not drawn) [Ic-122] | 90% | 100% | 3.24 | 100% | 100% |  |  |  |  |  |  |  | 
3 | Cn1nc(C(F)(F)C(F)(F)F)c(C=O)c1-n1cc(-c2ccc(Cl)c(C(=O)NC3(C#N)CC3)c2)cn1 [Ic-121] | 100% | 100% | 3.09 | 100% |  |  |  |  |  |  |  |  | 
4 | CSCCNC(=O)c1cc(-c2cnn(-c3c(C(F)(F)F)c(C(F)(F)C(F)(F)F)nn3C)c2)ccc1Cl [Ic-167] |  |  |  |  |  | 90% | 100% | 100% | 100% | 100% | 100% | 100% | 100%
5 | CC1CC1NC(=O)c1cc(-c2cnn(-c3c(C(F)(F)F)c(C(F)(F)C(F)(F)F)nn3C)c2)ccc1Cl (stereo not drawn) [Ic-79] | 90% | 100% | 4.15 | 100% | 100% |  |  |  |  |  |  |  | 
6 | CSc1ccc(-c2cnn(-c3c(C(F)(F)F)c(C(F)(F)C(F)(F)F)nn3C)c2)cc1C(=O)NC1CC1 [Ic-182] | 100% | 100% | 3.81 | 90% | 100% |  |  |  |  |  |  |  | 
7 | CON=Cc1ccc(-c2cnn(-c3c(C(F)(F)F)c(C(F)(F)C(F)(F)F)nn3C)c2)cc1C(=O)NC1CC1 (mixture of isomers) [Ic-118] | 100% | 100% | 3.99 | 100% | 100% |  |  |  |  |  | 100% | 100% | 
8 | Cn1nc(C(F)(F)F)c([S+](C)[O-])c1-n1cc(-c2ccc(Cl)c(C(=O)NC3(C#N)CC3)c2)cn1 (stereo not drawn) [Ic-134] | 100% | 100% | 2.16 | 100% |  |  |  |  |  |  |  |  | 
9 | Cn1nc(C(F)(F)C(F)(F)F)c(C(F)(F)F)c1-n1cc(-c2ccc(Cl)c(C(=O)NC3CC3C(F)(F)F)c2)cn1 (stereo not drawn) [Ic-181] |  |  | 4.26 |  |  | 100% |  |  | 100% | 100% |  |  | 100%
10 | Cn1nc(C(F)(F)C(F)(F)F)c(C(F)(F)F)c1-n1cc(-c2ccc(S(C)(=O)=O)c(C(=O)NC3CC3)c2)cn1 [Ic-190] | 100% | 100% | 3.35 | 100% | 100% |  |  |  |  |  |  |  | 
11 | Cn1nc(C(F)(F)F)c(CF)c1-n1cc(-c2ccc(Cl)c(C(=O)NC3(C#N)CC3)c2)cn1 [Ic-115] | 90% | 100% | 2.89 | 100% | 100% |  |  |  |  |  |  |  | 
12 | CCOC1CC1NC(=O)c1cc(-c2cnn(-c3c(C(F)(F)F)c(C(F)(F)C(F)(F)F)nn3C)c2)ccc1Cl (stereo not drawn) [Ic-186] | 90% |  | 3.73 |  |  |  |  |  | 100% | 90% |  |  | 100%
13 | Cn1nc(C(F)(F)C(F)(F)F)c(C(F)(F)F)c1-n1cc(-c2ccc(Cl)c(C(=O)NC3CS(=O)(=O)C3)c2)cn1 [Ic-117] |  |  | 3.37 |  |  | 90% |  |  | 100% | 100% |  |  | 100%
14 | CCO[C@@H]1C[C@H]1NC(=O)c1cc(-c2cnn(-c3c(C(F)(F)F)c(C(F)(F)C(F)(F)F)nn3C)c2)ccc1Cl [Ic-180] |  |  | 3.99 |  |  | 90% |  |  | 100% | 100% |  |  | 100%
15 | Cn1nc(C(F)(F)C(F)(F)F)c(C(F)(F)F)c1-n1cc(-c2ccc(Cl)c(C(=S)NC3CC3)c2)cn1 [Ic-132] | 90% | 100% | 4.34 | 100% | 100% |  |  |  |  |  |  |  | 
16 | Cn1nc(C(F)(F)C(F)(F)F)c(C(F)(F)F)c1-n1cc(-c2ccc(Cl)c(C(=O)NC3(C4CC4)CC3)c2)cn1 [Ic-188] |  |  | 4.43 |  |  | 100% |  |  | 100% | 100% |  |  | 100%
17 | Cn1nc(C(F)(F)C(F)(F)F)c(C(F)(F)F)c1-n1cc(-c2ccc(Cl)c(C(=O)NC3C[S+]([O-])C3)c2)cn1 (stereo not drawn) [Ic-116] |  |  | 3.03 |  |  | 90% |  |  | 100% | 100% |  |  | 100%
18 | CCN(CC)S(=O)(=O)c1ccc(-c2cnn(-c3c(C(F)(F)F)c(C(F)(F)C(F)(F)F)nn3C)c2)cc1C(=O)NC1CC1 [Ic-185] | 100% | 100% | 3.99 | 100% | 100% |  |  |  |  |  |  |  | 
19 | CSC1CC(NC(=O)c2cc(-c3cnn(-c4c(C(F)(F)F)c(C(F)(F)C(F)(F)F)nn4C)c3)ccc2Cl)C1 (stereo not drawn) [Ic-108] | 90% | 100% | 4.28 | 100% | 83% |  |  | 80% |  |  | 100% | 100% | 
20 | Cn1nc(C(F)(F)F)c(C(F)(F)F)c1-n1cc(-c2ccc(Cl)c(C(=O)NC3(C#N)CC3)c2)cn1 [Ic-127] | 100% | 100% | 3.3 | 100% | 100% |  |  |  |  |  |  |  | 
21 | COC1(NC(=O)c2cc(-c3cnn(-c4c(C(F)(F)F)c(C(F)(F)C(F)(F)F)nn4C)c3)ccc2Cl)CC1 [Ic-187] |  |  | 3.83 |  |  | 90% |  |  | 100% | 100% |  |  | 100%
22 | Cc1ccc(-c2cnn(-c3c(C(F)(F)F)c(C(F)(F)C(F)(F)F)nn3C)c2)cc1C(=O)NC1(C#N)CC1 [Ic-129] | 90% | 100% | 3.73 | 100% | 100% |  |  |  |  |  |  |  | 
23 | Cn1nc(C(F)(F)F)c(C(F)F)c1-n1cc(-c2ccc(Cl)c(C(=O)NC3CC3)c2)cn1 [Ic-133] | 100% | 100% | 3.01 | 100% | 100% |  |  |  |  |  |  |  | 
24 | Cn1nc(C(F)(F)C(F)(F)F)c(C(F)(F)F)c1-n1cc(-c2ccc(Cl)c(C(=O)NC3CCCC3)c2)cn1 [Ic-141] |  |  |  |  |  | 100% | 80% | 100% | 100% | 100% | 100% | 100% | 100%
